Test results as given in PMC12298351, “Novel 3,19-(N-Phenyl-3-(4-fluorophenyl)-pyrazole) Acetal of Andrographolide Promotes Cell Cycle Arrest and Apoptosis in MDA-MB-231 Breast Cancer Cells” (Pharmaceuticals, 2025).
“And” between values parts separate entries of the source, which are not always exact repeats. Equal entries are not always repeated.

What was measured:
[1] = system: MDA-MB-231 breast cancer cells; test: MTT cell proliferation assay; type: cell-based; details: MDA-MB-231, 0-200 µM, 72 h
Description: (§1) These MDA-MB-231 breast cancer cells were treated with 1f at different concentrations, i.e., 0, 1.56, 3.125, 6.25, 12.5, 25, 50, 100, and 200 µM, for 72 h.
(§2) MDA-MB-231 breast cancer cells and MCF-10A normal breast epithelial cells (from ATCC, Manassas, VA, USA) were seeded into 96-well plates at a density of 4 × 10^3 cells per well. After overnight incubation at 37 °C, the cells were treated with varying concentrations of compound 1f (0, 1.56, 3.125, 6.25, 12.5, 25, 50, 100, and 200 µM) and incubated for an additional 72 h. Untreated cells served as the negative control. Subsequently, 10 µL of the MTT solution (5 mg/mL) was added to each well, and the plates were incubated for 3 h to assess cell viability. The medium was then discarded, and the absorbance was measured at 570 nm using a microplate reader (Promega GloMax, Madison, WI, USA).

[2] = system: MDA-MB-231 breast cancer cell line; test: Annexin V-FITC/PI apoptotic assay (FACS); type: cell-based; details: MDA-MB-231, 3.33 µM
Description: Apoptosis is considered a preventive mechanism against cancer dissemination, as it plays a crucial role in eliminating excessively proliferating and mutated cancer cells from the body. Following the administration of cytotoxic drugs as treatment for various types of cancer, apoptosis is a significant contributor to cellular death. […] We proceeded to investigate whether compound 1f triggers apoptosis or not. The MDA-MB-231 breast cancer cell line was treated with 1f for 24, 48, and 72 h. A quantitative evaluation of apoptotic activity was performed using FACS.
To evaluate the pro-apoptotic effect of compound 1f, Annexin V-FITC/PI dual staining was conducted. Cells were seeded into 12-well plates at a density of 1 × 10^5 cells per well and treated with the compound for 24, 48, and 72 h. Post-treatment, the cells were collected using 1X trypsin, including both floating and adherent cells, and centrifuged at 4000 rpm for 5 min. The resulting pellet was resuspended in 100 µL of 1X Annexin V binding buffer and stained with Annexin V-FITC, followed by a 15 min incubation in the dark at 4 °C. Cells were then washed, resuspended in fresh binding buffer, and stained with propidium iodide before immediate analysis via flow cytometry.

MDA-MB-231 cells = test: Cell cycle assay, PI staining, flow cytometry; type: cell-based; details: MDA-MB-231, 24 h
Description: Cell proliferation is well associated with the regulation of cell cycle progression. Therefore, the effect of 1f on cell cycle distribution was evaluated by flow cytometry in PI-stained cells.
Cell cycle distribution was assessed by propidium iodide (PI) staining followed by flow cytometric analysis. Cells (3 × 10^5/well) were plated in 6-well plates and allowed to adhere for 24 h. To synchronize the cell cycle, the medium was replaced with serum-free medium for 8 h. After synchronization, cells were treated with various concentrations of compound 1f for 24 h. Following treatment, cells were harvested with 1X trypsin, washed with cold PBS, and fixed in 70% ethanol at 4 °C for 2 h. Fixed cells were washed twice with PBS, then incubated overnight in a staining solution containing RNase A (1 µL, 10 mg/mL) and PI (5 µL, 1 mg/mL) in 1X PBS. Cell cycle distribution was subsequently determined using flow cytometry.

[3] = system: MCF-10a (normal breast cells)
Description: as §1, §2

**Q.** How did the “anti-proliferation activity (MTT)” value [1] turn out when `C=C1CCC2C3(C)COC(c4cn(-c5ccccc5)nc4-c4ccc(F)cc4)OC3CCC2(C)C1CC=C1C(=O)OCC1O` (stereo not drawn) [1f, 3,19-(N-Phenyl-3-(4-fluorophenyl)-pyrazole) Acetal of Andrographolide] was run?
**A.** strong dose-dependent anti-proliferation activity

**Q.** And the “apoptotic cells (total)” value ([2]; 24 h)?
**A.** remained almost the same

**Q.** And the “apoptotic cells (total)” value ([2]; 48 h)?
**A.** 44%

**Q.** And the “early apoptosis (Q3)” value ([2]; 48 h)?
**A.** 10.3%

**Q.** And the “late apoptosis (Q2)” value ([2]; 48 h)?
**A.** 33.0%

**Q.** What about the “apoptotic cells (total)” value ([2]; 72 h) of the same compound?
**A.** 55%

**Q.** What about the “early apoptosis (Q3)” value ([2]; 72 h) of the same compound?
**A.** 14.7%

**Q.** What about the “late apoptosis (Q2)” value ([2]; 72 h) of the same compound?
**A.** 40.6%

**Q.** What about the “G1 (%)” value (MDA-MB-231 cells; 3.33 µM) of the same compound?
**A.** 77.36 ± 0.69%

**Q.** And the “G2 (%)” value (MDA-MB-231 cells; 3.33 µM)?
**A.** 6.94 ± 0.28%

**Q.** What about the “S (%)” value (MDA-MB-231 cells; 3.33 µM) of the same compound?
**A.** 14.2% and 14.4 ± 0.95%

**Q.** And the “G1 (%)” value (MDA-MB-231 cells; 5.00 µM)?
**A.** 62.83 ± 1.2%

**Q.** What about the “G2 (%)” value (MDA-MB-231 cells; 5.00 µM) of the same compound?
**A.** 4.87 ± 0.26%

**Q.** And the “S (%)” value (MDA-MB-231 cells; 5.00 µM)?
**A.** 25.2% and 26.5 ± 0.96%

**Q.** And the “G1 (%)” value (MDA-MB-231 cells; 6.66 µM)?
**A.** 59.6% and 57.83 ± 1.2%

**Q.** And the “G2 (%)” value (MDA-MB-231 cells; 6.66 µM)?
**A.** 4.01% and 3.82 ± 0.20%

**Q.** What about the “S (%)” value (MDA-MB-231 cells; 6.66 µM) of the same compound?
**A.** 21.9 ± 1.03%

**Q.** What about the CC50 [3] of the same compound?
**A.** 50 µM
